Patent publication US9839629B2, “Inhibitors of the renal outer medullary potassium channel” (Merck Sharp & Dohme Corp., priority 2013, dated 2017)

target: T1, ROMK (Kir1.1) channel (Homo sapiens, UniProt P48048); experiment: Thallium Flux Assay; assay type: cell-based
T1 sequence (P48048 1-391): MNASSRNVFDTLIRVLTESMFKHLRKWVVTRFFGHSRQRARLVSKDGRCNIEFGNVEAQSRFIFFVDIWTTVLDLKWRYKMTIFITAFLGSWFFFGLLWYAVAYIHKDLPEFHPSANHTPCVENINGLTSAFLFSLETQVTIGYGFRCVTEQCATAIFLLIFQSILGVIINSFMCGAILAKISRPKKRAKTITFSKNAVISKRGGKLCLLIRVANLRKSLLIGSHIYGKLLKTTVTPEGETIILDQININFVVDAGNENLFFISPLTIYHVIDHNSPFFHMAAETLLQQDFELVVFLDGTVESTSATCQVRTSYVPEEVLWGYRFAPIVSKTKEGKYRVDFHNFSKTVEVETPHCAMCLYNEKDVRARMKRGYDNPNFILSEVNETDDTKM
Procedure: A Thallium Flux Assay was performed on each of the final product compounds in the Examples. When the final product of an Example was an HCl salt, the salt was run in the Assay. This assay has been described previously; see, e.g., PCT Published Application WO 2013/062900.

SMILES	IC50
CC1=C(N2CCC3(CCN(C[C@H](O)c4ccc(-n5cnnn5)cn4)CC3)CC2)COC1=O [Example 51, (S)-4-(9-(2-(5-(1H-tetrazol-1-yl)pyridin-2-yl)-2-hydroxyethyl)-3,9-diazaspiro[5.5]undecan-3-yl)-3-methylfuran-2(5H)-one]	70 nM
CO[C@@H](CN1CCC2(CC1)CCN(C1=CC(=O)OC1)CC2)c1ccc2c(c1C)COC2=O [Example 91, (R)-5-(1-methoxy-2-(9-(5-oxo-2,5-dihydrofuran-3-yl)-3,9-diazaspiro[5.5]undecan-3-yl)ethyl)-4-methylisobenzofuran-1(3H)-one]	198 nM
CC1=C(N2CCC3(CCN(C[C@H](O)c4ccc(-n5cnnn5)nc4C)CC3)CC2=O)COC1=O [Example 29, (R)-9-(2-hydroxy-2-(2-methyl-6-(1H-tetrazol-1-yl)pyridin-3-yl)ethyl)-3-(4-methyl-5-oxo-2,5-dihydrofuran-3-yl)-3,9-diazaspiro[5.5]undecan-2-one]	330 nM
O=C1C=C(N2CCC3(CCN(C(=O)Cc4ccc(-n5cnnn5)nc4)CC3)CC2)CO1 [Example 99, 4-(9-(2-(6-(1H-tetrazol-1-yl)pyridin-3-yl)acetyl)-3,9-diazaspiro[5.5]undecan-3-yl)furan-2(5H)-one]	109 nM
O=C1C=C(N2CCC3(CCN(C(=O)Cc4cc(F)c(-n5cnnn5)cc4F)CC3)CC2)CO1 [Example 104, 4-(9-{[2,5-difluoro-4-(1H-tetrazol-1-yl)phenyl]acetyl}-3,9-diazaspiro[5.5]undec-3-yl)furan-2(5H)-one]	115 nM
Cc1c(N2CCC3(CCN(C[C@H](O)c4cnc(-n5cnnn5)cn4)CC3)CC2)c(=O)c1=O [Example 85, (S)-3-(9-(2-(5-(1H-tetrazol-1-yl)pyrazin-2-yl)-2-hydroxyethyl)-3,9-diazaspiro[5.5]undecan-3-yl)-4-methylcyclobut-3-ene-1,2-dione]	80 nM
Cc1c([C@@H](O)CN2CCC3(CC2)CCN(C2=CC(=O)CC2)CC3)ccc2c1COC2=O [Example 72, (R)-5-(1-hydroxy-2-(9-(3-oxocyclopent-1-en-1-yl)-3,9-diazaspiro[5.5]undecan-3-yl)ethyl)-4-methylisobenzofuran-1(3H)-one]	439 nM
CCOC1OC(=O)C=C1N1CCC2(CCN(C[C@H](O)c3ccc4c(c3C)COC4=O)CC2)CC1 (stereo partly drawn) [Example 92, 5-((1R)-2-(9-(2-ethoxy-5-oxo-2,5-dihydrofuran-3-yl)-3,9-diazaspiro[5.5]undecan-3-yl)-1-hydroxyethyl)-4-methylisobenzofuran-1(3H)-one]	539 nM
CO[C@@H]1CN(C2=C(C)C(=O)OC2)CCC12CCN(C[C@H](O)c1ccc3c(c1C)COC3=O)CC2 [Example 98, 5-{(1R)-1-hydroxy-2-[(7S)-7-methoxy-9-(4-methyl-5-oxo-2,5-dihydrofuran-3-yl)-3,9-diazaspiro[5.5]undec-3-yl]ethyl}-4-methyl-2-benzofuran-1(3H)-one]	53 nM
Cc1c([C@@H](O)CN2CCC3(CC2)CCN(C2=CC(=O)OC2)C(C)C3)ccc2c1COC2=O (single isomer, unassigned) [Example 32]	49 nM
CC1=C(N2CCC3(CCN(C[C@@H](O)c4cncc(-n5cnnn5)c4)CC3)CC2)COC1=O [Example 64, (S)-4-(9-(2-(5-(1H-tetrazol-1-yl)pyridin-3-yl)-2-hydroxyethyl)-3,9-diazaspiro[5.5]undecan-3-yl)-3-methylfuran-2(5H)-one]	117 nM
Cc1c([C@@H](O)CN2CCC3(CC2)CCN(C2=C(F)C(=O)OC2)CC3)ccc2c1COC2=O [Example 38, (R)-5-(2-(9-(4-fluoro-5-oxo-2,5-dihydrofuran-3-yl)-3,9-diazaspiro[5.5]undecan-3-yl)-1-hydroxyethyl)-4-methylisobenzofuran-1(3H)-one]	7 nM
CC1=C(N2CCC3(CCN(C[C@@H](O)c4cncc(-n5cnnn5)n4)CC3)CC2)COC1=O [Example 66, (R)-4-(9-(2-(6-(1H-tetrazol-1-yl)pyrazin-2-yl)-2-hydroxyethyl)-3,9-diazaspiro[5.5]undecan-3-yl)-3-methylfuran-2(5H)-one]	110 nM
Cc1cc(-n2cnnn2)cnc1C(O)CN1CCC2(CC1)CCN(C1=CC(=O)OC1)CC2 (stereo in doubt) [Example 21, (S)-4-(9-(2-hydroxy-2-(3-methyl-5-(1H-tetrazol-1-yl)pyridin-2-yl)ethyl)-3,9-diazaspiro[5.5]undecan-3-yl)furan-2(5H)-one]	181 nM
Cc1nc(-n2cnnn2)ccc1[C@@H](O)CN1CCC2(CC1)CCN(C1=CC(=O)OC1)CC2 [Example 13, (R)-4-(9-(2-hydroxy-2-(2-methyl-6-(1H-tetrazol-1-yl)pyridin-3-yl)ethyl)-3,9-diazaspiro[5.5]undecan-3-yl)furan-2(5H)-one]	14 nM
Cc1nc(-n2cnnn2)ccc1[C@H](O)CN1CCC2(CC1)CCN(C1=CC(=O)OC1)CC2 [Example 14, (S)-4-(9-(2-hydroxy-2-(2-methyl-6-(1H-tetrazol-1-yl)pyridin-3-yl)ethyl)-3,9-diazaspiro[5.5]undecan-3-yl)furan-2(5H)-one]	24 nM
CO[C@H]1CN(C2=C(C)C(=O)OC2)CCC12CCN(C[C@H](O)c1ccc3c(c1C)COC3=O)CC2 [Example 97, 5-{(1R)-1-hydroxy-2-[(7R)-7-methoxy-9-(4-methyl-5-oxo-2,5-dihydrofuran-3-yl)-3,9-diazaspiro[5.5]undec-3-yl]ethyl}-4-methyl-2-benzofuran-1(3H)-one]	42 nM
CC1=C(N2CCC3(CCN(C[C@H](O)c4ccc5c(c4C)COC5=O)CC3)[C@@H](O)C2)COC1=O [Example 94, 5-{(1R)-1-hydroxy-2-[(7R)-7-hydroxy-9-(4-methyl-5-oxo-2,5-dihydrofuran-3-yl)-3,9-diazaspiro[5.5]undec-3-yl]ethyl}-4-methyl-2-benzofuran-1(3H)-one]	639 nM
Cc1nc(-n2cnnn2)ccc1[C@H](O)CN1CCC2(CC1)CCN(C1=CC(=O)CC1)CC2 [Example 71, (S)-3-(9-(2-hydroxy-2-(2-methyl-6-(1H-tetrazol-1-yl)pyridin-3-yl)ethyl)-3,9-diazaspiro[5.5]undecan-3-yl)cyclopent-2-enone]	243 nM
O=C1C=C(N2CCC3(CCN(C[C@H](O)c4ccc(-n5cnnn5)nc4)CC3)CC2)CO1 [Example 18, (R)-4-(9-(2-(6-(1H-tetrazol-1-yl)pyridin-3-yl)-2-hydroxyethyl)-3,9-diazaspiro[5.5]undecan-3-yl)furan-2(5H)-one]	16 nM
CC1=C(N2CCC3(CCN(C[C@H](O)c4cc(-n5cnnn5)ccn4)CC3)CC2)COC1=O [Example 67, (S)-4-(9-(2-(4-(1H-tetrazol-1-yl)pyridin-2-yl)-2-hydroxyethyl)-3,9-diazaspiro[5.5]undecan-3-yl)-3-methylfuran-2(5H)-one]	305 nM
CC1=C(N2CCC3(CCN(C[C@@H](O)c4cc(-n5cnnn5)ccn4)CC3)CC2)COC1=O [Example 68, (R)-4-(9-(2-(4-(1H-tetrazol-1-yl)pyridin-2-yl)-2-hydroxyethyl)-3,9-diazaspiro[5.5]undecan-3-yl)-3-methylfuran-2(5H)-one]	185 nM
CC1=C(N2CCC3(CCN(C[C@H](O)c4cncc(-n5cnnn5)c4)CC3)CC2)COC1=O [Example 63, (R)-4-(9-(2-(5-(1H-tetrazol-1-yl)pyridin-3-yl)-2-hydroxyethyl)-3,9-diazaspiro[5.5]undecan-3-yl)-3-methylfuran-2(5H)-one]	196 nM
Cc1nc(-n2cnnn2)ccc1[C@@H](O)CN1CCC2(CC1)CCN(C1=C(C3CC3)C(=O)OC1)CC2 (stereo in doubt) [Example 43, 3-cyclopropyl-4-(9-(2-hydroxy-2-(2-methyl-6-(1H-tetrazol-1-yl)pyridin-3-yl)ethyl)-3,9-diazaspiro[5.5]undecan-3-yl)furan-2(5H)-one]	16 nM
Cc1c(CCN2CCC3(CC2)CCN(c2c(C)c(=O)c2=O)CC3)ccc2c1COC2=O [Example 3, 3-methyl-4-(9-(2-(4-methyl-1-oxo-1,3-dihydroisobenzofuran-5-yl)ethyl)-3,9-diazaspiro[5.5]undecan-3-yl)cyclobut-3-ene-1,2-dione]	93 nM
Cc1cc(-n2cnnn2)ccc1[C@@H](O)CN1CCC2(CC1)CCN(C1=CC(=O)CC1)CC2 [Example 73, (R)-3-(9-(2-hydroxy-2-(2-methyl-4-(1H-tetrazol-1-yl)phenyl)ethyl)-3,9-diazaspiro[5.5]undecan-3-yl)cyclopent-2-enone]	179 nM
Cc1c([C@@H](O)CN2CCC3(CC2)CCN(C2=CC(=O)OC2)CC3)ccc2c1COC2=O [Example 8, (R)-5-(1-hydroxy-2-(9-(5-oxo-2,5-dihydrofuran-3-yl)-3,9-diazaspiro[5.5]undecan-3-yl)ethyl)-4-methylisobenzofuran-1(3H)-one]	49 nM
Cc1c([C@@H](O)CN2CCC3(CC2)CCN(C2=C(c4ccncc4)C(=O)OC2)CC3)ccc2c1COC2=O [Example 42, (R)-5-(1-hydroxy-2-(9-(5-oxo-4-(pyridin-4-yl)-2,5-dihydrofuran-3-yl)-3,9-diazaspiro[5.5]undecan-3-yl)ethyl)-4-methylisobenzofuran-1(3H)-one]	352 nM
Cc1c([C@@H](O)CN2CCC3(CC2)CCN(C2=C(Cl)C(=O)OC2)CC3)ccc2c1COC2=O [Example 40, (R)-5-(2-(9-(4-chloro-5-oxo-2,5-dihydrofuran-3-yl)-3,9-diazaspiro[5.5]undecan-3-yl)-1-hydroxyethyl)-4-methylisobenzofuran-1(3H)-one]	5 nM
